Test results as given in PubChem BioAssay (NCI).
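Five concentrations, 48 hours, 96-well plates. At the TGI there is no net growth.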

Tests used:
Test in all cases: growth of human tumour cells (NCI), 48 h
NCI-H23 lung = tested on: NCI-H23 lung
DU-145 prostate = tested on: DU-145 prostate
MDA-MB-231 breast = tested on: MDA-MB-231 breast
A498 renal = tested on: A498 renal
NCI/ADR-RES ovarian = tested on: NCI/ADR-RES ovarian
OVCAR-3 ovarian = tested on: OVCAR-3 ovarian
SK-OV-3 ovarian = tested on: SK-OV-3 ovarian
ACHN renal = tested on: ACHN renal
MALME-3M melanoma = tested on: MALME-3M melanoma
HOP-92 NSCLC = tested on: HOP-92 NSCLC
MDA-N = tested on: MDA-N
SNB-19 CNS = tested on: SNB-19 CNS
KM12 colon = tested on: KM12 colon
MOLT-4 leukemia = tested on: MOLT-4 leukemia
UACC-257 melanoma = tested on: UACC-257 melanoma
SN12C renal = tested on: SN12C renal
K-562 leukemia = tested on: K-562 leukemia
RPMI-8226 leukemia = tested on: RPMI-8226 leukemia
U251 CNS = tested on: U251 CNS
BT-549 breast = tested on: BT-549 breast
NCI-H460 lung = tested on: NCI-H460 lung
COLO 205 colon = tested on: COLO 205 colon
NCI-H522 lung = tested on: NCI-H522 lung
HOP-62 NSCLC = tested on: HOP-62 NSCLC
NCI-H226 lung = tested on: NCI-H226 lung
OVCAR-4 ovarian = tested on: OVCAR-4 ovarian
RXF 393 renal = tested on: RXF 393 renal
CAKI-1 renal = tested on: CAKI-1 renal
UO-31 renal = tested on: UO-31 renal
CCRF-CEM leukemia = tested on: CCRF-CEM leukemia
EKVX NSCLC = tested on: EKVX NSCLC
LOX IMVI melanoma = tested on: LOX IMVI melanoma
HL-60(TB) leukemia = tested on: HL-60(TB) leukemia
T-47D breast = tested on: T-47D breast
HCT-116 colon = tested on: HCT-116 colon
SF-295 CNS = tested on: SF-295 CNS
SK-MEL-2 melanoma = tested on: SK-MEL-2 melanoma
SW-620 colon = tested on: SW-620 colon
786-0 renal = tested on: 786-0 renal
OVCAR-5 ovarian = tested on: OVCAR-5 ovarian
UACC-62 melanoma = tested on: UACC-62 melanoma
HCT-15 colon = tested on: HCT-15 colon
SR leukemia = tested on: SR leukemia
TK-10 renal = tested on: TK-10 renal
MCF7 breast = tested on: MCF7 breast
OVCAR-8 ovarian = tested on: OVCAR-8 ovarian
M14 melanoma = tested on: M14 melanoma
SK-MEL-28 melanoma = tested on: SK-MEL-28 melanoma
SF-539 CNS = tested on: SF-539 CNS
SF-268 CNS = tested on: SF-268 CNS
HT29 colon = tested on: HT29 colon
SK-MEL-5 melanoma = tested on: SK-MEL-5 melanoma
MDA-MB-435 = tested on: MDA-MB-435
A549 NSCLC = tested on: A549 NSCLC
HCC-2998 colon = tested on: HCC-2998 colon
HS 578T breast = tested on: HS 578T breast
IGROV1 ovarian = tested on: IGROV1 ovarian
PC-3 prostate = tested on: PC-3 prostate
SNB-75 CNS = tested on: SNB-75 CNS

Question: How did the TGI (NCI-H23 lung) turn out when O=C1/C(=C\c2cccc(Oc3ccccc3)c2)SC(c2ccccc2)N1c1ccccc1Cl (stereo unspecified) was run?
Answer: 69.7 µM

Question: What about the TGI (DU-145 prostate) of the same molecule?
Answer: > 100 µM

Question: And the TGI (MDA-MB-231 breast)?
Answer: > 100 µM

Question: What about the TGI (A498 renal) of the same molecule?
Answer: > 100 µM

Question: What about the TGI (NCI/ADR-RES ovarian) of the same molecule?
Answer: > 100 µM

Question: What about the TGI (OVCAR-3 ovarian) of the same molecule?
Answer: > 100 µM

Question: And the TGI (SK-OV-3 ovarian)?
Answer: > 100 µM

Question: What about the TGI (ACHN renal) of the same molecule?
Answer: > 100 µM

Question: And the TGI (MALME-3M melanoma)?
Answer: > 100 µM

Question: And the TGI (HOP-92 NSCLC)?
Answer: 57.5 µM

Question: What about the TGI (MDA-N) of the same molecule?
Answer: 54.2 µM

Question: What about the TGI (SNB-19 CNS) of the same molecule?
Answer: 76.4 µM

Question: And the TGI (KM12 colon)?
Answer: 98.8 µM

Question: What about the TGI (MOLT-4 leukemia) of the same molecule?
Answer: > 100 µM

Question: What about the TGI (UACC-257 melanoma) of the same molecule?
Answer: 85.8 µM

Question: And the TGI (SN12C renal)?
Answer: 96.9 µM

Question: And the TGI (K-562 leukemia)?
Answer: > 100 µM

Question: And the TGI (RPMI-8226 leukemia)?
Answer: 55.3 µM

Question: What about the TGI (U251 CNS) of the same molecule?
Answer: 78.5 µM

Question: What about the TGI (BT-549 breast) of the same molecule?
Answer: 96.6 µM

Question: What about the TGI (NCI-H460 lung) of the same molecule?
Answer: > 100 µM

Question: What about the TGI (COLO 205 colon) of the same molecule?
Answer: 49 µM

Question: And the TGI (NCI-H522 lung)?
Answer: 48.5 µM

Question: And the TGI (HOP-62 NSCLC)?
Answer: > 100 µM

Question: And the TGI (NCI-H226 lung)?
Answer: > 100 µM

Question: What about the TGI (OVCAR-4 ovarian) of the same molecule?
Answer: > 100 µM

Question: What about the TGI (RXF 393 renal) of the same molecule?
Answer: 78.5 µM

Question: What about the TGI (CAKI-1 renal) of the same molecule?
Answer: > 100 µM

Question: What about the TGI (UO-31 renal) of the same molecule?
Answer: > 100 µM

Question: What about the TGI (CCRF-CEM leukemia) of the same molecule?
Answer: 38.4 µM

Question: And the TGI (EKVX NSCLC)?
Answer: > 100 µM

Question: And the TGI (LOX IMVI melanoma)?
Answer: 75.8 µM

Question: What about the TGI (HL-60(TB) leukemia) of the same molecule?
Answer: > 100 µM

Question: What about the TGI (T-47D breast) of the same molecule?
Answer: > 100 µM

Question: What about the TGI (HCT-116 colon) of the same molecule?
Answer: 50.7 µM

Question: And the TGI (SF-295 CNS)?
Answer: > 100 µM

Question: And the TGI (SK-MEL-2 melanoma)?
Answer: 92.4 µM

Question: And the TGI (SW-620 colon)?
Answer: > 100 µM

Question: What about the TGI (786-0 renal) of the same molecule?
Answer: > 100 µM

Question: And the TGI (OVCAR-5 ovarian)?
Answer: > 100 µM

Question: What about the TGI (UACC-62 melanoma) of the same molecule?
Answer: > 100 µM

Question: And the TGI (HCT-15 colon)?
Answer: > 100 µM

Question: What about the TGI (SR leukemia) of the same molecule?
Answer: > 100 µM

Question: What about the TGI (TK-10 renal) of the same molecule?
Answer: > 100 µM

Question: And the TGI (MCF7 breast)?
Answer: > 100 µM

Question: And the TGI (OVCAR-8 ovarian)?
Answer: 79.9 µM

Question: And the TGI (M14 melanoma)?
Answer: > 100 µM

Question: What about the TGI (SK-MEL-28 melanoma) of the same molecule?
Answer: > 100 µM

Question: And the TGI (SF-539 CNS)?
Answer: 39 µM

Question: What about the TGI (SF-268 CNS) of the same molecule?
Answer: > 100 µM

Question: What about the TGI (HT29 colon) of the same molecule?
Answer: 49.9 µM

Question: And the TGI (SK-MEL-5 melanoma)?
Answer: 29.8 µM

Question: And the TGI (MDA-MB-435)?
Answer: 68 µM

Question: And the TGI (A549 NSCLC)?
Answer: > 100 µM

Question: And the TGI (HCC-2998 colon)?
Answer: 78.9 µM

Question: What about the TGI (HS 578T breast) of the same molecule?
Answer: 60.2 µM

Question: Which TGI (NCI-H23 lung) does the source give for CCC(=O)Nc1ccc(NCC(=O)Nc2ccc(Cl)cc2)cc1 here?
Answer: 38.9 µM

Question: And the TGI (DU-145 prostate)?
Answer: 35.6 µM

Question: And the TGI (A498 renal)?
Answer: 46 µM

Question: What about the TGI (IGROV1 ovarian) of the same molecule?
Answer: 64.4 µM

Question: And the TGI (NCI/ADR-RES ovarian)?
Answer: 93.6 µM

Question: And the TGI (OVCAR-3 ovarian)?
Answer: 33.6 µM

Question: And the TGI (SK-OV-3 ovarian)?
Answer: 64.1 µM

Question: What about the TGI (ACHN renal) of the same molecule?
Answer: 27.9 µM

Question: What about the TGI (MALME-3M melanoma) of the same molecule?
Answer: 34.8 µM

Question: What about the TGI (HOP-92 NSCLC) of the same molecule?
Answer: 33.4 µM

Question: And the TGI (MDA-N)?
Answer: 35.3 µM

Question: And the TGI (SNB-19 CNS)?
Answer: 42 µM

Question: What about the TGI (KM12 colon) of the same molecule?
Answer: 33 µM

Question: And the TGI (MOLT-4 leukemia)?
Answer: 98.2 µM

Question: And the TGI (UACC-257 melanoma)?
Answer: 36.8 µM

Question: And the TGI (SN12C renal)?
Answer: 35.3 µM

Question: And the TGI (K-562 leukemia)?
Answer: > 100 µM

Question: What about the TGI (RPMI-8226 leukemia) of the same molecule?
Answer: 70.3 µM

Question: And the TGI (PC-3 prostate)?
Answer: 31.8 µM

Question: And the TGI (BT-549 breast)?
Answer: 48.6 µM

Question: What about the TGI (COLO 205 colon) of the same molecule?
Answer: 35.5 µM

Question: What about the TGI (NCI-H522 lung) of the same molecule?
Answer: 30.2 µM

Question: What about the TGI (HOP-62 NSCLC) of the same molecule?
Answer: 30.7 µM

Question: And the TGI (NCI-H226 lung)?
Answer: 53.5 µM

Question: And the TGI (OVCAR-4 ovarian)?
Answer: 33.3 µM

Question: What about the TGI (RXF 393 renal) of the same molecule?
Answer: 35.6 µM

Question: And the TGI (CAKI-1 renal)?
Answer: 53.7 µM

Question: What about the TGI (UO-31 renal) of the same molecule?
Answer: 78.9 µM

Question: And the TGI (CCRF-CEM leukemia)?
Answer: 60.3 µM

Question: And the TGI (EKVX NSCLC)?
Answer: 28.2 µM

Question: What about the TGI (LOX IMVI melanoma) of the same molecule?
Answer: 27.4 µM

Question: And the TGI (HL-60(TB) leukemia)?
Answer: 42.7 µM

Question: And the TGI (T-47D breast)?
Answer: 29.8 µM

Question: What about the TGI (HCT-116 colon) of the same molecule?
Answer: 30.4 µM

Question: And the TGI (SF-295 CNS)?
Answer: > 100 µM

Question: What about the TGI (SK-MEL-2 melanoma) of the same molecule?
Answer: 30.8 µM

Question: And the TGI (SW-620 colon)?
Answer: 74.9 µM

Question: And the TGI (786-0 renal)?
Answer: 35.7 µM

Question: And the TGI (OVCAR-5 ovarian)?
Answer: 32.1 µM

Question: And the TGI (UACC-62 melanoma)?
Answer: 26.6 µM

Question: And the TGI (HCT-15 colon)?
Answer: 36.4 µM

Question: What about the TGI (SR leukemia) of the same molecule?
Answer: 94.1 µM

Question: And the TGI (MCF7 breast)?
Answer: 29.8 µM

Question: And the TGI (OVCAR-8 ovarian)?
Answer: 94.4 µM

Question: What about the TGI (M14 melanoma) of the same molecule?
Answer: 29.3 µM

Question: What about the TGI (SNB-75 CNS) of the same molecule?
Answer: 64.6 µM

Question: What about the TGI (SK-MEL-28 melanoma) of the same molecule?
Answer: 42.6 µM

Question: And the TGI (SF-539 CNS)?
Answer: 36.8 µM

Question: What about the TGI (SF-268 CNS) of the same molecule?
Answer: 55.4 µM

Question: What about the TGI (HT29 colon) of the same molecule?
Answer: 28 µM

Question: What about the TGI (SK-MEL-5 melanoma) of the same molecule?
Answer: 30.7 µM

Question: And the TGI (MDA-MB-435)?
Answer: 33.2 µM

Question: And the TGI (A549 NSCLC)?
Answer: 56.5 µM

Question: What about the TGI (HCC-2998 colon) of the same molecule?
Answer: 26.7 µM

Question: And the TGI (HS 578T breast)?
Answer: > 100 µM
